Experimental data taken from patent US10435388B2, “Selective inhibitors of clinically important mutants of the EGFR tyrosine kinase” (CS PHARMATECH LIMITED, priority 2016, dated 2019).

Experiments:
[1] = tested on: p-EGFR in A431 cells (wild type EGFR, EGF stimulated); test: Wild type EGFR A431 autophosphorylation inhibition assay (ELISA); type: cell-based, human; conditions: Homo sapiens, A-431, cellular EGFR autophosphorylation, 2 h treatment, EGF stimulation 10 min
Description: Cellular EGFR Autophosphorylation Assays.
Wild Type EGFR A431 Autophosphorylation Inhibition Assay (ELISA).
After 2 hour treatment with test compounds, add 4.5 μL of EGF (1 μg/mL) into each well and stimulate for 10 min. The rest of the procedure was processed in the same manner as described above for H1975 cells.

A431 cells (WT) = test: A431 inhibition assay (cell proliferation), Method B; type: cell-based, human; conditions: Homo sapiens, A-431, 72 h, cellular proliferation, several runs
Description: Cell Proliferation Assays—Method B
A431 Inhibition Assay, (Cell Proliferation).
The rest procedure was conducted in the same manner as described above for H1975 cells.

[2] = tested on: p-EGFR in H1975 cells (L858R/T790M double mutant EGFR); conditions: Homo sapiens, NCI-H1975, 2 h, read-out: H1975 IC50 (nM), cellular EGFR autophosphorylation, 2 h treatment, ELISA
Description: H1975 cells were cryopreserved in liquid nitrogen. […] Remove the vial from liquid nitrogen and thaw rapidly by placing at 37° C. in a water bath with gentle agitation for 1-2 minutes and then decontaminated by wiping with 70% ethanol before opening in a Class II biological safety cabinet. Transfer the vial contents drop-wise into 10 mL of cell culture medium in a sterile 15 mL conical tube. Then centrifuged the tube at 200× g for 5 minutes and aspirate the supernatant. Re-suspend the cell pellet with 1 mL of fresh cell culture medium and transfer it in to the T75 flask containing cell culture medium.
To passage H1975 cells, firstly, the adherent cells were rinsed with Trypsin/EDTA. Then add Trypsin/EDTA (3 mL for a T75 flask) into the flask and swirl to ensure the cells coated with trypsin evenly. Then incubate the flasks at 37° C. until the cells detach. Add equal volume of cell culture medium to stop the reaction. Collect the detached cells and centrifuged at 200× g for 5 minutes followed by re-suspended in fresh culture medium. Then, the cells were transferred into a new T75 flask containing cell culture medium. Cells were sub-cultured three times per week at a ratio of 1:4 in culture medium.
Harvest cells from flask into cell culture medium and the cell numbers counted using Automated Cell Counter (Thermo Fisher Scientific, Countess™). Dilute the cells into 250,000 cells/mL with culture medium and add 40 μL of cell suspension into each well of 384-well cell culture plate as designated. The final concentration was 10,000 cells/well. The plates were covered with lid and placed in 37° C. 5% CO2 incubator overnight for cell attachment.
On the second day, test compounds were dissolved in DMSO at 10 mM. […] The same volume of DMSO was adopted as high control.
Place the plate back to 37° C. 5% CO2 incubator for 2 hours. Replace the medium of each well with ice-cold HBSS. Then remove the HBSS, add 30 μL cell lysis buffer into each well and shake the plates for 30 mins on a plate shaker. Centrifuge for 5 min at 1,000 rpm to remove bubbles and transfer 25 uL of the lysate supernatant for p-EGFR assay by using a commercial ELISA kit (R&D, DYC1095B-5).
For estimation of IC50, the absorption readout are transformed to % relative activity by applying the following equation
[formula] The IC50 was then calculated by fitting in XLFit (IDBS, Guildford, Surrey) to a four parameters logistic curve.

PC9 cells (SM) = test: PC-9 growth inhibition assay (cell proliferation), Method B; type: cell-based, human; conditions: Homo sapiens, PC-9, 72 h, cellular proliferation, several runs
IGF-1R = molecular target: T1, IGF-1R (Homo sapiens, UniProt P08069); test: IGF-1R inhibition assay (Caliper EZ Reader); type: biochemical; conditions: enzyme assay
T1 construct: purchased CARNA BIOSCIENCE 08-141
T1 sequence (P08069 959-1367 limits assumed): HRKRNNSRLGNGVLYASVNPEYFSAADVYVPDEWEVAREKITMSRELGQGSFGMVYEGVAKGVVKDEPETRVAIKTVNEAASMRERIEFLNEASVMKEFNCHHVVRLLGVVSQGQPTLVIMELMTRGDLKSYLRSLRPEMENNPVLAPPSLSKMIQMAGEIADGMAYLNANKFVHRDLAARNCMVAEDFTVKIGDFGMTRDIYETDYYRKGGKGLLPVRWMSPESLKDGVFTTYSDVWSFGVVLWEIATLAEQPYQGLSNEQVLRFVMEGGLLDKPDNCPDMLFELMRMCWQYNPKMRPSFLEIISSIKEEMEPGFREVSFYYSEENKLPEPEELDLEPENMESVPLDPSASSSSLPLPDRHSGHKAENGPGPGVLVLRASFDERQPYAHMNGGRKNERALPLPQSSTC
Procedure, shortened: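 IGF-1R protein and peptide substrate were preincubated 30 min at RT with compound. Phosphorylated and non-phosphorylated fluorescent peptides were separated by mobility shift, and the read-out is the conversion ratio.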

INSR = molecular target: T2, INSR (Homo sapiens, UniProt P06213); test: INSR inhibition assay (Caliper EZ Reader); type: biochemical; conditions: enzyme assay
T2 construct: purchased CARNA BIOSCIENCE 08-142
T2 sequence (P06213 989-1382 limits assumed): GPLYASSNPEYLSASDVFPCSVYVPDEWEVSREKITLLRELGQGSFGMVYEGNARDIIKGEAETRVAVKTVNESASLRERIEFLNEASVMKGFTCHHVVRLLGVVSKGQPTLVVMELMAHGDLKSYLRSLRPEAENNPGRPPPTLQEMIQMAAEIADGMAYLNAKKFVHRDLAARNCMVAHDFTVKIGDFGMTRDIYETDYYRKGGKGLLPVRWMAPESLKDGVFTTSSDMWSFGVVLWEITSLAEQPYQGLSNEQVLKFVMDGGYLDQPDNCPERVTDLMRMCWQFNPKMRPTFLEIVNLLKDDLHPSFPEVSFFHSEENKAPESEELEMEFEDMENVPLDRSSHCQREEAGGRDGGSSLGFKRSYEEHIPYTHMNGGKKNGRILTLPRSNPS

Mouse in vivo PK study = conditions: male CDI mice
Description: To determine the drug concentration in plasma of NJB-342, NJB-348 and NJB-463 following intravenous and oral administration in male CDI Mice, to get the pharmacokinetic profile and PK parameters
Test animals: healthy male CDI mice (body weight 20-30 g, 18 mice, free access to food and water), provided by Sibeifu laboratory.
Dose Level and dose route: dosed the animals via intravenous injection from tail vein for IV group (1 mg/kg, 5 mL/kg, 10% DMSO/40% PEG400/50% water), dosed the animals via oral gavage for PO group (10 mg/kg, 10 mL/kg, (10% DMSO/40% PEG400/50% water), respectively.
Samples collection: the healthy animals were used, weighed the bodyweight and marked at tail and cage card prior to dosing. Blood samples (0.03 mL per time point) were collected from dorsal metatarsal vein at 0.083, 0.25, 0.5, 1, 2, 4, 8, 24 h post dose for IV group and at 0.25, 0.5, 1, 2, 4, 8, 24 h post dose for PO group, the terminal time point was collected from heart (˜0.3 mL). The blood samples were put into the tube with heparin-Na coated and then put on the cold box, centrifuged at 4° C. 4000 g, 5 minutes immediately after collecting all samples per time point to get plasma. The plasma samples were stored in a freezer at −75±15° C. prior to analysis.

H1975 cells (DM) = test: H1975 inhibition assay (cell proliferation), Method B; type: cell-based; conditions: Homo sapiens, NCI-H1975, 72 h, cellular proliferation, several runs
[3] = tested on: p-EGFR in PC9 cells (Exon 19 deletion EGFR); test: Exon19 deletion EGFR (activating single mutant) PC-9 cellular autophosphorylation assay; type: cell-based, human; conditions: Homo sapiens, PC-9, 2 h, 2 h treatment, ELISA

IC50 [1]: 66.3 nM
IC50 (A431 cells (WT)): 396 nM
IC50 [2]: 4.19 nM
IC50 (PC9 cells (SM)): 2.29 nM
IC50 (IGF-1R): 337 nM
IC50 (INSR): 366 nM
F (Mouse in vivo PK study; PO 10 mg/kg vs IV 1 mg/kg): 42.1%
clearance (Mouse in vivo PK study; mouse, plasma, IV 1 mg/kg): 97 mL/min/kg
half-life (Mouse in vivo PK study; mouse, plasma, IV 1 mg/kg, read-out: T1/2 (IV) (converted)): 1.32 h
AUC (Mouse in vivo PK study; mouse, plasma, PO 10 mg/kg): 677 ng·h/mL
Cmax (Mouse in vivo PK study; mouse, plasma, PO 10 mg/kg): 176 ng/mL
IC50 (H1975 cells (DM)): 2.37 nM
IC50 [3]: 3.69 nM
Structure (SMILES): C=CC(=O)Nc1cc(Nc2nccc(-n3nc(N(C)C)c4ccccc43)n2)c(OC)cc1N(C)CCN(C)C [Example 42, N-(5-((4-(3-(Dimethylamino)-1H-indazol-1-yl)pyrimidin-2-yl)amino)-2-((2-(dimethylamino)ethyl)(methyl)amino)-4-methoxyphenyl) acrylamide]
